Experimental data: ChEMBL document CHEMBL5608141, “Identification of compartment-specific drug sensitivities in CRC organoid-stroma co-cultures” (2024)

Legend:
Type in all cases: functional, Homo sapiens
Design in all cases: dose or concentration left out as unconfirmed
[1] = system: Colon cancer organoid; assay: Identification of compartment-specific drug sensitivities in O20 CRC organoid-stroma F20 CAF co-cultures. Organoid is transduced with Lucferase2-P2A-EGFP lentivirus, fibroblast with Renilla-dsRed lentivirus. Dual-Glo Luciferase assay is used to report viability data.
[2] = system: Colon cancer organoid; assay: Identification of compartment-specific drug sensitivities in O14 CRC organoid-stroma F14 CAF co-cultures. Organoid is transduced with Lucferase2-P2A-EGFP lentivirus, fibroblast with Renilla-dsRed lentivirus. Dual-Glo Luciferase assay is used to report viability data.
[3] = system: Colon cancer organoid; assay: Identification of compartment-specific drug sensitivities in O06 CRC organoid-stroma F06 CAF co-cultures. Organoid is transduced with Lucferase2-P2A-EGFP lentivirus, fibroblast with Renilla-dsRed lentivirus. Dual-Glo Luciferase assay is used to report viability data.
[4] = Transduced with Lucferase2-P2A-EGFP lentivirus
[5] = Transduced with Renilla-dsRed lentivirus

Compound: CC(C)(O)CNc1ncc(-c2ccnc(Nc3ccnc(Cl)c3)n2)c(CC2CC2)n1
- Cell Viability [1, 4]: 67.8279%
- Cell Viability [1, 5]: 172.835%
- Cell Viability [2, 4]: 84.1319%
- Cell Viability [2, 5]: 170.669%
- Cell Viability [3, 4]: 30.6205%
- Cell Viability [3, 5]: 168.017%

Compound: Cc1c(C(=O)Nc2ccc(Oc3ccnc4[nH]cc(-c5ccccc5)c34)c(F)c2)c(=O)n(-c2ccc(F)cc2)n1C
- Cell Viability [1, 4]: 225.47%
- Cell Viability [1, 5]: 22.9382%
- Cell Viability [2, 4]: 62.1416%
- Cell Viability [2, 5]: 28.9447%
- Cell Viability [3, 4]: 73.6786%
- Cell Viability [3, 5]: 56.2803%

Compound: COc1cc2c(NC3CCN(C(C)C)CC3)nc(N3CCC(F)(F)CC3)nc2cc1OCCCN1CCCC1
- Cell Viability [1, 4]: 136.596%
- Cell Viability [1, 5]: 132.743%
- Cell Viability [2, 4]: 78.7749%
- Cell Viability [2, 5]: 75.7418%
- Cell Viability [3, 4]: 88.0521%
- Cell Viability [3, 5]: 104.162%

Compound: COc1cc(C#N)ccc1S(=O)(=O)Nc1ccc2c(c1)cc(C)c(=O)n2C
- Cell Viability [1, 4]: 96.9289%
- Cell Viability [1, 5]: 124.149%
- Cell Viability [2, 4]: 105.069%
- Cell Viability [2, 5]: 87.2253%
- Cell Viability [3, 4]: 94.9001%
- Cell Viability [3, 5]: 111.598%

Compound: CCOc1cc(N2CCC(O)CC2)ccc1Nc1ncc2c(n1)N(C)c1ccccc1C(=O)N2C
- Cell Viability [1, 4]: 81.3429%
- Cell Viability [1, 5]: 117.331%
- Cell Viability [2, 4]: 113.616%
- Cell Viability [2, 5]: 107.398%
- Cell Viability [3, 4]: 85.6087%
- Cell Viability [3, 5]: 128.987%

Compound: CN(C)C(=O)Cn1cc(-c2ccc(-c3nnc4ccccn34)cc2)cn1
- Cell Viability [1, 4]: 167.784%
- Cell Viability [1, 5]: 52.6743%
- Cell Viability [2, 4]: 99.1399%
- Cell Viability [2, 5]: 78.8551%
- Cell Viability [3, 4]: 105.212%
- Cell Viability [3, 5]: 110.192%

Compound: COc1nc2ccc([C@@](O)(c3ccccc3)C3CCN(C(C)=O)CC3)cc2c(Cl)c1Cc1ccc(-n2cccn2)cc1 [JNJ-54119936]
- Cell Viability [1, 4]: 65.101%
- Cell Viability [1, 5]: 118.395%
- Cell Viability [2, 4]: 99.4009%
- Cell Viability [2, 5]: 84.202%
- Cell Viability [3, 4]: 97.0001%
- Cell Viability [3, 5]: 121.742%

Compound: C[C@H]1CCCN1Cc1nc2cc(NC(=O)c3ccc4cnccc4c3)ccc2[nH]1
- Cell Viability [1, 4]: 98.7446%
- Cell Viability [1, 5]: 149.477%
- Cell Viability [2, 4]: 76.6817%
- Cell Viability [2, 5]: 109.65%
- Cell Viability [3, 4]: 122.515%
- Cell Viability [3, 5]: 131.721%

Compound: COc1cc(N(C)c2ccnc3ccc(C(F)(F)F)cc23)cc(OC)c1OC
- Cell Viability [1, 4]: 76.7382%
- Cell Viability [1, 5]: 110.267%
- Cell Viability [2, 4]: 95.9474%
- Cell Viability [2, 5]: 95.4836%
- Cell Viability [3, 4]: 62.3452%
- Cell Viability [3, 5]: 117.147%

Compound: C[C@H](NC(=O)Nc1cc2[nH]ncc2c(CO)n1)c1ccccn1 [ERKi-NC]
- Cell Viability [1, 4]: 108.541%
- Cell Viability [1, 5]: 124.126%
- Cell Viability [2, 4]: 81.1185%
- Cell Viability [2, 5]: 100.943%
- Cell Viability [3, 4]: 94.8975%
- Cell Viability [3, 5]: 86.1568%

Compound: CCOC(=O)CCNc1cc(N2CCc3ccccc3CC2)nc(-c2cccnc2)n1
- Cell Viability [1, 4]: 102.371%
- Cell Viability [1, 5]: 131.422%
- Cell Viability [2, 4]: 87.4597%
- Cell Viability [2, 5]: 97.4259%
- Cell Viability [3, 4]: 130.773%
- Cell Viability [3, 5]: 124.082%

Compound: CCC(=O)N[C@@H]1CC[C@H](C(=O)N(C)c2ccc(-c3nc4ccccc4o3)cc2)C1 [BI 99990]
- Cell Viability [1, 4]: 115.817%
- Cell Viability [1, 5]: 121.154%
- Cell Viability [2, 4]: 98.8872%
- Cell Viability [2, 5]: 100.403%
- Cell Viability [3, 4]: 102.864%
- Cell Viability [3, 5]: 119.997%

Compound: Cc1cc(=O)n(C)c2cc(N3C(=O)CC[C@H](NS(=O)(=O)CC(C)C)[C@H]3c3ccc(Cl)cc3)ccc12
- Cell Viability [1, 4]: 108.181%
- Cell Viability [1, 5]: 166.434%
- Cell Viability [2, 4]: 95.8197%
- Cell Viability [2, 5]: 121.413%
- Cell Viability [3, 4]: 117.914%
- Cell Viability [3, 5]: 167.751%

Compound: O=C(Nc1cnc(Oc2ccc(F)cc2)nc1)N1CCc2ncccc2[C@@H]1c1ccc(F)cc1 [BAY-899]
- Cell Viability [1, 4]: 151.912%
- Cell Viability [1, 5]: 104.61%
- Cell Viability [2, 4]: 105.834%
- Cell Viability [2, 5]: 99.8567%
- Cell Viability [3, 4]: 92.2798%
- Cell Viability [3, 5]: 100.101%

Compound: CN1CCN(Cc2ccc(Nc3ncc(Cl)c(Nc4ccccc4S(=O)(=O)N(C)C)n3)cc2)CC1 [DUBERMATINIB]
- Cell Viability [1, 4]: 1.051%
- Cell Viability [1, 5]: 16.1981%
- Cell Viability [2, 4]: 1%
- Cell Viability [2, 5]: 1.414%
- Cell Viability [3, 4]: 0.5937%
- Cell Viability [3, 5]: 0.7151%

Compound: CC(=O)Nc1cccc(-n2c(=O)n(C3CC3)c(=O)c3c(Nc4ccc(I)cc4F)n(C)c(=O)c(C)c32)c1 [TRAMETINIB]
- Cell Viability [1, 4]: 2.051%
- Cell Viability [1, 5]: 46.1337%
- Cell Viability [2, 4]: 7.5472%
- Cell Viability [2, 5]: 16.7625%
- Cell Viability [3, 4]: 4.775%
- Cell Viability [3, 5]: 48.8246%

Compound: CCc1cccc(CC)c1NC(=O)c1nn(C)c2c1CCc1cnc(Nc3ccc(C(=O)NC4CCN(C)CC4)cc3OC(F)(F)F)nc1-2
- Cell Viability [1, 4]: 94.5822%
- Cell Viability [1, 5]: 107.437%
- Cell Viability [2, 4]: 11.9525%
- Cell Viability [2, 5]: 117.182%
- Cell Viability [3, 4]: 8.756%
- Cell Viability [3, 5]: 150.393%

Compound: C[C@@H]1CCc2ncc(F)cc2[C@H]2CCCN2c2ccn3ncc(c3n2)C(=O)N1 [SELITRECTINIB]
- Cell Viability [1, 4]: 168.559%
- Cell Viability [1, 5]: 73.3915%
- Cell Viability [2, 4]: 99.8274%
- Cell Viability [2, 5]: 100.464%
- Cell Viability [3, 4]: 101.733%
- Cell Viability [3, 5]: 118.761%

Compound: CCOc1cc2ncc(C#N)c(Nc3ccc(OCc4cccc(F)c4)c(Cl)c3)c2cc1NC(=O)/C=C/CN(C)C [HKI-357]
- Cell Viability [1, 4]: 50.6947%
- Cell Viability [1, 5]: 47.1207%
- Cell Viability [2, 4]: 38.7389%
- Cell Viability [2, 5]: 28.7857%
- Cell Viability [3, 4]: 16.8896%
- Cell Viability [3, 5]: 39.6819%

Compound: CC#CC(=O)N1CCC[C@H]1c1nc(-c2ccc(C(=O)Nc3ccccn3)cc2)c2c(N)nccn12 [ACALABRUTINIB]
- Cell Viability [1, 4]: 96.3915%
- Cell Viability [1, 5]: 99.9657%
- Cell Viability [2, 4]: 75.641%
- Cell Viability [2, 5]: 83.8473%
- Cell Viability [3, 4]: 96.562%
- Cell Viability [3, 5]: 83.4698%

Compound: COCCc1ccc(-c2c(C)nc3c(N4CCOCC4)ccnn23)cn1 [JNJ-42396302]
- Cell Viability [1, 4]: 126.017%
- Cell Viability [1, 5]: 102.271%
- Cell Viability [2, 4]: 94.533%
- Cell Viability [2, 5]: 84.3411%
- Cell Viability [3, 4]: 121.378%
- Cell Viability [3, 5]: 128.188%

Compound: CCC(=O)N1CCOc2c(cc(-c3ccc(OC)c(OC)c3)cc2OCC2CCCN(C)C2)C1 (stereo unspecified)
- Cell Viability [1, 4]: 85.7121%
- Cell Viability [1, 5]: 123.175%
- Cell Viability [2, 4]: 132.169%
- Cell Viability [2, 5]: 110.752%
- Cell Viability [3, 4]: 113.999%
- Cell Viability [3, 5]: 135.091%

Compound: OCCn1cc(-c2ccc3c(c2)CCC3=NO)c(-c2ccncc2)n1
- Cell Viability [1, 4]: 203.673%
- Cell Viability [1, 5]: 70.8995%
- Cell Viability [2, 4]: 204.013%
- Cell Viability [2, 5]: 111.094%
- Cell Viability [3, 4]: 81.3359%
- Cell Viability [3, 5]: 109.303%

Compound: Cc1nccc(COC(=O)N2C[C@@H]3[C@@H](CNC(=O)c4ccc5[nH]nnc5c4)[C@@H]3C2)n1 [BI 3017]
- Cell Viability [1, 4]: 107.028%
- Cell Viability [1, 5]: 99.2728%
- Cell Viability [2, 4]: 148.595%
- Cell Viability [2, 5]: 113.357%
- Cell Viability [3, 4]: 143.297%
- Cell Viability [3, 5]: 89.1244%

Compound: CCn1cc(-c2cccc(C(F)(F)F)c2)c2sc(C(=N)NC3CCS(=O)(=O)CC3)cc2c1=O
- Cell Viability [1, 4]: 61.0963%
- Cell Viability [1, 5]: 124.144%
- Cell Viability [2, 4]: 135.151%
- Cell Viability [2, 5]: 119.275%
- Cell Viability [3, 4]: 95.4713%
- Cell Viability [3, 5]: 165.165%

Compound: CNCCN1CCC(OCc2ccccc2)CC1
- Cell Viability [1, 4]: 15.2261%
- Cell Viability [1, 5]: 211.667%
- Cell Viability [2, 4]: 40.9856%
- Cell Viability [2, 5]: 114.707%
- Cell Viability [3, 4]: 118.085%
- Cell Viability [3, 5]: 144.179%

Compound: C[C@@H]1CN(c2cc(-c3nn(C)c4ccc(OC5(C)CC5)cc34)ncn2)C[C@H](C)O1 [MLi-2-NC]
- Cell Viability [1, 4]: 112.711%
- Cell Viability [1, 5]: 86.6644%
- Cell Viability [2, 4]: 144.766%
- Cell Viability [2, 5]: 104.291%
- Cell Viability [3, 4]: 55.8067%
- Cell Viability [3, 5]: 87.1439%

Compound: Cc1cnc(Nc2ccc(F)cc2Cl)nc1-c1c[nH]c(C(=O)N[C@H](CO)c2cccc(Cl)c2)c1
- Cell Viability [1, 4]: 6.88%
- Cell Viability [1, 5]: 113.857%
- Cell Viability [2, 4]: 47.0783%
- Cell Viability [2, 5]: 28.0153%
- Cell Viability [3, 4]: 51.8597%
- Cell Viability [3, 5]: 63.6391%

Compound: COc1cccc(CNC(=O)c2nc3scc(CN(C)Cc4ccccc4)c3c(=O)[nH]2)c1 [T-26f]
- Cell Viability [1, 4]: 156.545%
- Cell Viability [1, 5]: 109.586%
- Cell Viability [2, 4]: 126.414%
- Cell Viability [2, 5]: 118.487%
- Cell Viability [3, 4]: 112.096%
- Cell Viability [3, 5]: 76.7347%

Compound: CN(C)C/C=C/C(=O)Nc1cc2c(Nc3ccc(F)c(Cl)c3)ncnc2cc1O[C@H]1CCOC1.O=C(O)/C=C\C(=O)O.O=C(O)/C=C\C(=O)O [AFATINIB DIMALEATE]
- Cell Viability [1, 4]: 37.8231%
- Cell Viability [1, 5]: 73.123%
- Cell Viability [2, 4]: 29.0273%
- Cell Viability [2, 5]: 34.3509%
- Cell Viability [3, 4]: 26.678%
- Cell Viability [3, 5]: 56.3894%

Compound: CCOC(=O)CCNc1cc(N2CCc3ccccc3CC2)nc(-c2ccccn2)n1
- Cell Viability [1, 4]: 101.525%
- Cell Viability [1, 5]: 127.032%
- Cell Viability [2, 4]: 102.142%
- Cell Viability [2, 5]: 98.2806%
- Cell Viability [3, 4]: 103.039%
- Cell Viability [3, 5]: 116.98%
